According to patent US20250127759A1, “METHODS AND DOSING REGIMENS COMPRISING A CDK2 INHIBITOR FOR THE TREATMENT OF CANCER” (PFIZER INC., priority 2021, published 2025):
Several values for one entry are separate records, joined by “and”; a condition that tells them apart may be missing. Equal values may be shown once. Read-outs that look alike come from different tables or passages of the source. Marks after values point to notes of the source that are not given here.

Columns and labels:
[1] = tested on: T-47D Cells; test: Combination cell proliferation assay, T47D; type: cell-based, human
Description: The combination effects of PF-07104091 with palbociclib were evaluated in a cell proliferation assay with MCF7 and T47D BC cell lines. […] Drug combinations were analyzed using the Dose Equivalence Principle, and the Loewe Volume score. When modeling synergy using the Dose Equivalence Principle, the Loewe Volume score for the combination compounds should be greater than the compound self-cross controls, and the Combination Index score for the combination compounds should be less than compound self-cross controls. […] Furthermore, the isobolograms set to an anti-proliferation threshold at 70% confirm a synergistic response.

[2] = tested on: OVCAR3 cells; test: Cell cycle distribution and DNA synthesis, OVCAR3; type: cell-based; settings: 72-hour treatment with 300 nM
Description: The effect of PF-07104091 on cell cycle distribution and DNA synthesis was determined following 72-hour treatment with 300 nM PF-07104091.

[3] = tested on: T47D; test: In vivo efficacy, T47D breast cancer model; set-up: species or system mice; settings: Day 41, 150 mg/kg BID PO
Description: The T47D model was established by implanting passage 3 tumor fragments into recipient mice. To establish the T47D donor mice, tumor cells (5×10^6 cell/mouse with 50% Cultrex® Basement Membrane Matrix) were subcutaneously implanted in female NSG mice. […] All mice received treatment continuously until Day 41. TGI was assessed on Day 41 post first dose.

[4] = Phase 1/2a study, plasma pharmacokinetics of PF-07104091; type: in vivo, human
Text: Blood samples will be collected for measurement of plasma concentrations of PF-07104091 as specified in the protocol. Samples will be used to evaluate the PK of PF-07104091. Samples collected for analyses of PF-07104091 plasma concentration may also be used to evaluate safety or efficacy aspects related to concerns arising during or after the study, for metabolite identification and/or evaluation of the bioanalytical method, or for other internal exploratory purposes.
Plasma PF-07104091 concentrations will be summarized descriptively (n, mean, standard deviation, coefficient of variation, median, minimum, maximum, geometric mean and its associated coefficient of variation) by dose, cycle, day and nominal time. Individual participant plasma PF-07104091 concentration-time data within a dose interval (with exception of the food effect substudy) after Cycle 1 Day 1 and Cycle 1 Day 15 will be analyzed using noncompartmental methods to determine single and multiple dose PK parameters. For participants in the food effect substudy, individual plasma PF-07104091 concentration-time data after Cycle 1 Day 15 and Cycle 1 Day 16 will be analyzed using noncompartmental methods to determine multiple dose PK parameters. For Part 1 of the study, single dose PK parameters to be estimated will include the Cmax, Tmax, and AUClast, and if data permit, t1/2, CL/F, and Vz/F. Multiple dose PK parameters to be estimated will include Cmax,ss, Tmax,ss, AUCT,ss, Cmin,ss, CL/F,ss, and if data permit, V/Fss, t1/2, and Rac. For Part 2 of the study (with exception of the food effect substudy), single dose PK parameters to be estimated will include Cmax, Tmax and AUClast. Multiple dose PK parameters to be estimated will include Cmax,ss, Tmax,ss, AUClast, Cmin,ss, and Rac. The single dose and steady state PK parameters will be summarized descriptively (n, mean, standard deviation, coefficient of variation, median, minimum, maximum, geometric mean and its associated coefficient of variation) by dose level, cycle and day. For participants in the food effect substudy, multiple dose PK parameters to be estimated will include Cmax,ss, AUCT,ss, Tmax,ss, Cmin,ss, CL/Fss, and if data permit, V/Fss and t1/2.
An ongoing Phase 1/2a, open-label, multicenter, multiple dose study is being conducted to determine the safety, tolerability, PK, PD, and preliminary anti-tumor activity of PF-07104091 as a single agent and in combination with endocrine therapy. PF-07104091 is administered orally twice daily (BID) during 28-day cycles.
Preliminary concentration-time data of PF-07104091 following single and multiple oral administration at 75 mg BID to 500 mg BID as monotherapy or in combination with endocrine therapy alone or in combination with palbociclib and endocrine therapy were available from 44 participants with advanced solid tumors and HR-positive HER2-negative advanced or metastatic breast cancer. The preliminary concentration-time data were analyzed by noncompartmental approach using actual PK sampling times.
[…] Individual values are listed when the number of participants with available parameters is less than 3.

[5] = Cycle 1 Day 1, single oral dose, 375 mg BID monotherapy, individual values
[6] = Cycle 1 Day 15, repeated BID oral, 75 mg BID monotherapy, individual values

In the case of `COCc1cc(C(=O)Nc2cc([C@H]3CC[C@@H](OC(=O)NC(C)C)C3)[nH]n2)n(C)n1` [PF-07104091, (1R,3S)-3-[3-({[3-(methoxymethyl)-1-methyl-1H-pyrazol-5-yl]carbonyl}amino)-1H-pyrazol-5-yl]cyclopentyl propan-2-ylcarbamate], the “Loewe Volume” value [1] is reported as 0.01, the “Best CI” value ([1]; Best CI Level 70) is reported as 0.95 and the cell cycle arrest [2] is reported as “Significant G1 arrest”. For the same molecule, the “S phase (cell cycle distribution)” value ([2]; p≤0.05 versus vehicle) was “Significant S phase reduction”, the TGI % [3] was 82* % and the AUClast [4, 5] was 14424 ng·h/mL. For the same molecule, the Cmax [4, 5] was 2890 ng/mL, the Tmax [4, 5] was 4.0, 4.0 h and the Rac ([4]; Cycle 1 Day 15, repeated BID oral, 75 mg BID (1B), with palbociclib and fulvestrant, arithmetic mean ± SD) was 1.2 ± 0.1. For the same molecule, the AUClast [4, 6] was 2321, ng*h/mL, the Cmax [4, 6] was 398, ng/mL and the Rac [4, 6] was 1.4 and 2.7. The Rac ([4]; Cycle 1 Day 15, repeated BID oral, 150 mg BID monotherapy, arithmetic mean ± SD) was 1.8 ± 0.2, the Rac ([4]; Cycle 1 Day 15, repeated BID oral, 225 mg BID monotherapy, arithmetic mean ± SD) was 1.8 ± 0.7 and the Rac ([4]; Cycle 1 Day 15, repeated BID oral, 300 mg BID monotherapy, arithmetic mean ± SD) was 1.9 ± 1.1. The Rac ([4]; Cycle 1 Day 15, repeated BID oral, 500 mg BID monotherapy, individual value, N = 1) was 1.1, the accumulation ([4]; following repeated BID administration) was “moderate accumulation” and the half-life ([4]; human, plasma, po, 75 mg BID to 500 mg BID, read-out: average half-life (converted)) was about 2 h. For the same molecule, the half-life ([4]; human, plasma, po, 75 mg, Cycle 1 Day 1, single oral dose, 75 mg BID (1B), with palbociclib and fulvestrant, arithmetic mean ± SD, read-out: t1/2 (converted)) was 1.9 ± 0.2 h, the AUC(0-t) ([4]; human, plasma, po, 75 mg, Cycle 1 Day 1, single oral dose, 75 mg BID (1B), with palbociclib and fulvestrant, geometric mean (CV %)) was 2760 ng·h/mL and the Cmax ([4]; human, plasma, po, 75 mg, Cycle 1 Day 1, single oral dose, 75 mg BID (1B), with palbociclib and fulvestrant, geometric mean (CV %), read-out: Cmax) was 694 ng/mL. The Tmax ([4]; human, plasma, po, 75 mg, Cycle 1 Day 1, single oral dose, 75 mg BID (1B), with palbociclib and fulvestrant, median (range), read-out: Tmax) was 1.6 h, the half-life ([4]; human, plasma, po, 75 mg, Cycle 1 Day 1, single oral dose, 75 mg BID (1C), with palbociclib and letrozole, arithmetic mean ± SD, read-out: t1/2 (converted)) was 1.6 ± 0.5 h and the AUC(0-t) ([4]; human, plasma, po, 75 mg, Cycle 1 Day 1, single oral dose, 75 mg BID (1C), with palbociclib and letrozole, geometric mean (CV %)) was 2460 ng·h/mL. For the same molecule, the Cmax ([4]; human, plasma, po, 75 mg, Cycle 1 Day 1, single oral dose, 75 mg BID (1C), with palbociclib and letrozole, geometric mean (CV %), read-out: Cmax) was 648 ng/mL, the Tmax ([4]; human, plasma, po, 75 mg, Cycle 1 Day 1, single oral dose, 75 mg BID (1C), with palbociclib and letrozole, median (range), read-out: Tmax) was 0.5 h and the half-life ([4]; human, plasma, po, 75 mg, Cycle 1 Day 1, single oral dose, 75 mg BID monotherapy, arithmetic mean ± SD, read-out: t1/2 (converted)) was 2.4 ± 0.7 h. For the same molecule, the AUC(0-t) ([4]; human, plasma, po, 75 mg, Cycle 1 Day 1, single oral dose, 75 mg BID monotherapy, geometric mean (CV %)) was 1750 ng·h/mL, the Cmax ([4]; human, plasma, po, 75 mg, Cycle 1 Day 1, single oral dose, 75 mg BID monotherapy, geometric mean (CV %), read-out: Cmax) was 362 ng/mL and the Tmax ([4]; human, plasma, po, 75 mg, Cycle 1 Day 1, single oral dose, 75 mg BID monotherapy, median (range), read-out: Tmax) was 2 h. It also gave a half-life ([4]; human, plasma, po, 75 mg, Cycle 1 Day 15, repeated BID oral, 75 mg BID (1B), with palbociclib and fulvestrant, arithmetic mean ± SD, read-out: t1/2 (converted)) of 3.6 ± 0.9 h, an AUC(0-t) ([4]; human, plasma, po, 75 mg, Cycle 1 Day 15, repeated BID oral, 75 mg BID (1B), with palbociclib and fulvestrant, geometric mean (CV %)) of 3080 ng·h/mL and a Cmax ([4]; human, plasma, po, 75 mg, Cycle 1 Day 15, repeated BID oral, 75 mg BID (1B), with palbociclib and fulvestrant, geometric mean (CV %), read-out: Cmax) of 698 ng/mL. For the same molecule, the Tmax ([4]; human, plasma, po, 75 mg, Cycle 1 Day 15, repeated BID oral, 75 mg BID (1B), with palbociclib and fulvestrant, median (range), read-out: Tmax) was 1.2 h, the AUC(0-t) ([4]; human, plasma, po, 75 mg, Cycle 1 Day 15, repeated BID oral, 75 mg BID monotherapy, individual values) was 3580 ng·h/mL and the Cmax ([4]; human, plasma, po, 75 mg, Cycle 1 Day 15, repeated BID oral, 75 mg BID monotherapy, individual values, read-out: Cmax) was 714 ng/mL.
